Counter-ions that a name gives are not always drawn. Like-named read-outs stand apart in the source and are kept apart here.
Key:
[1] = cited from earlier work
[2] = test system: MX-1 (Human Mammary Cancer); assay: in vivo Antitumor Test on MX-1 (Human Mammary Cancer) transplanted in nude mice; details: Mus musculus, ip, 528 h, i.p.; for responders at 25 mg/kg / inhibition in vivo at 25 mg/kg: 25 mg/kg/day; for responders at 15 mg/kg / inhibition in vivo at 15 mg/kg: 15 mg/kg/day
Procedure: MX-1 tumor pieces (about 1 mm^3) were subcutaneously transplanted into the side part of each nude mouse (BALB/C.nu/nu, 6 to 7 weeks, female). A compound of the present invention was dissolved in a 5% solution of glucose. When the tumor volume reached 50 mm^3 (on the about 10th day after the transplantation), the solution of the compound was intraperitoneally administered to the animals once a day in accordance with each schedule. On the other hand, a 5% solution of glucose was administered to the control group. The control group had 10 animals, while each test group had 5 animals. On the 22nd day after the transplantation, tumors were taken out and weighed. The tumor multiplication inhibitory ratio of each test group to the control group was determined in accordance with the following formula: [formula] wherein T means the average tumor weight of the test group; and C means the average tumor weight of the control group.

[3] = test system: M5076 (Mouse Reticulum Cell Sarcoma); assay: in vivo Antitumor Test on M5076 (Mouse Reticulum Cell Sarcoma) transplanted in BDF1 mice; details: M5076, ip, 504 h, i.p.; for survival rate on day 21 at 25 mg/kg / inhibition in vivo at 25 mg/kg: 25 mg/kg/day, d9 after transplantation
Procedure: M5076 cells (1×10^6 /animal) were subcutaneously transplanted into the side part of each BDF1 mouse (aged 6 to 7 weeks, female). A compound of the present invention was dissolved in a 5% solution of glucose. From the next day of the transplantation, the solution of the compound was intraperitoneally administered to the animals once a day in accordance with each schedule. On the other hand, a 5% solution of glucose was administered to the control group. The control group had 10 animals, while each test group had 5 animals.
On the 21st day after the transplantation, tumors were taken out and weighed. The tumor multiplication inhibitory ratio of each test group to the control group was determined in accordance with the following formula: [formula] wherein T means the average tumor weight of the test group; and C means the average tumor weight of the control group.

[4] = test system: P388 cells; assay: in vitro Antitumor Test on P388 Cells (Mouse Leukemic Cells), MTT, 3 days; format: cell-based; details: 72 h, 3 days incubation
Procedure: P388 cells suspended in RPMI1640 medium (manufactured by Sanko Junyaku) containing 10% of fetal calf serum, (100 U/ml) of penicillin, 100 μg/ml of streptomycin, 5×10^-5 M of mercaptoethanol and 1 mM of sodium pyruvate were pipetted into a 96-well U-bottomed microplate at a ratio of 1.25×10^3 cells (0.1 ml) per well and incubated in a incubator containing 5% of carbon dioxide at 37° C. for a day. A compound of the present invention was dissolved in dimethyl sulfoxide to give a concentration of 10^-2 M and then diluted with the 10% fetal calf serum-containing RPMI1640 culture medium to give a concentration of 10^-4 or 10^-5 M. By taking this concentration as the maximal level, threefold serial dilution was effected with the use of the 10% fetal calf serum-containing RPMI1640 culture medium. Then these dilutions were added to the P388 incubation plate as described above at a ratio of 0.1 ml per well followed by incubation in an incubator containing 5% of carbon dioxide at 37° C. for 3 days. After the completion of the incubation, 0.05 ml/well of a 3.3 mg/ml solution of MTT [3-(4,5-dimethylthiazol-2-yl)-2,5-diphenyltetrazolium bromide] was added thereto and the incubation was continued for additional 2 hours. The microplate was centrifuged and the supernatant was aspirated off from each well. Then the formazan thus formed was dissolved in 0.1 ml of dimethyl sulfoxide and the absorbance thereof at 540 nm measured with a microplate reader was taken as an indication of the viable cell count. In accordance with the following formula, the inhibitory ratio was calculated and the 50% inhibitory concentration (IC50) of the test compound was determined: [formula] wherein T means the absorbance of a well containing the test compound; and C means the absorbance of a well containing no test compound.

[5] = Drugs Fut., 17, 832 (1992), cited from earlier work
[6] = Farmaco, 47, 1035 (1992), J. Med. Chem., 37, 593 (1994)
[7] = q7d × 3, read-out: Survival rate on the judgement day (22th day)
[8] = q7d × 3, tumor weight day 22, read-out: Proliferation inhibitory ratio (%)
[9] = read-out: Survival rate on the judgement day (21th day)
[10] = tumor weight day 21, read-out: Proliferation inhibitory ratio (%)

Compound: 2,3-dihydro-2-[2-(dimethylamino)ethyl]-1H,7H-naphthylidino[3,2,1-ij]quinazoline-1,3,7(2H)-trione
- antitumor activity in preclinical tests [1, 6]: only a weak antitumor activity in preclinical tests

Compound: CN(C)CCn1c(=O)c2cccc3c(=O)c4ccccc4n(c1=O)c32 [2-[2-(dimethylamino)ethyl]pyrimid[5,6,1-de]acridine-1,3,7-trione]
- antitumor activity in preclinical tests [1, 6]: only a weak antitumor activity in preclinical tests

Compound: CN(C)CCn1c(=O)c2cccc3c4c5ccccc5ccc4n(c1=O)c23 [Example 1, 5-[2-(Dimethylamino)ethyl]-4H-benzo[c]pyrimido[5,6,1-jk]carbazole-4,6(5H)-dione hydrochloride]
- responders at 25 mg/kg ([2]; q4d × 4, read-out: Survival rate on the judgement day (22th day)): 100%
- inhibition in vivo at 25 mg/kg ([2]; q4d × 4, tumor weight day 22, read-out: Proliferation inhibitory ratio (%)): 48%
- survival rate on day 21 at 50 mg/kg ([3]; 50 mg/kg/day, d1,2,3,4 after transplantation, read-out: Survival rate on the judgement day (21th day)): 100%
- inhibition in vivo at 50 mg/kg ([3]; 50 mg/kg/day, d1,2,3,4 after transplantation, tumor weight day 21, read-out: Proliferation inhibitory ratio (%)): 95.2%
- IC50 [4]: 290 nM

Compound: CC(=O)c1ccc2c(ccc3c2c2cccc4c(=O)n(CCN(C)C)c(=O)n3c42)c1 [Example 2, 11-Acetyl-5-[2-(dimethylamino)ethyl]-4H-benzo[c]pyrimido[5,6,1-jk]carbazole-4,6(5H)-dione hydrochloride]
- responders at 25 mg/kg [2, 7]: 100%
- inhibition in vivo at 25 mg/kg [2, 8]: 63.3%
- survival rate on day 21 at 25 mg/kg [3, 9]: 100%
- inhibition in vivo at 25 mg/kg [3, 10]: 91.4%
- IC50 [4]: 70 nM

Compound: CC(O)c1ccc2c(ccc3c2c2cccc4c(=O)n(CCN(C)C)c(=O)n3c42)c1 (centres unmarked) [Example 3, 5-[2-(Dimethylamino)ethyl]-11-(1-hydroxyethyl)-4H-benzo[c]pyrimido[5,6,1-jk]carbazole-4,6(5H)-dione hydrochloride]
- responders at 20 mg/kg ([2]; 20 mg/kg/day, q7d × 3, read-out: Survival rate on the judgement day (22th day)): 100%
- inhibition in vivo at 20 mg/kg ([2]; 20 mg/kg/day, q7d × 3, tumor weight day 22, read-out: Proliferation inhibitory ratio (%)): 55.7%
- survival rate on day 21 at 25 mg/kg [3, 9]: 100%
- inhibition in vivo at 25 mg/kg [3, 10]: 90%
- IC50 [4]: 26 nM

Compound: CN(C)CCn1c(=O)c2cccc3c4c5c(ccc4n(c1=O)c23)C(=O)CCC5 [Example 4, 12,13-Dihydro-5-[2-(dimethylamino)ethyl]-4H-benzo[c]pyrimido[5,6,1-jk]carbazole-4,6,10(5H,11H)-trione hydrochloride]
- responders at 15 mg/kg [2, 7]: 100%
- inhibition in vivo at 15 mg/kg [2, 8]: 98.4%
- survival rate on day 21 at 12.5 mg/kg ([3]; 12.5 mg/kg/day, d1,8,15 after transplantation, read-out: Survival rate on the judgement day (21th day)): 100%
- inhibition in vivo at 12.5 mg/kg ([3]; 12.5 mg/kg/day, d1,8,15 after transplantation, tumor weight day 21, read-out: Proliferation inhibitory ratio (%)): 100%
- survival rate on day 21 at 25 mg/kg [3, 9]: 100%
- inhibition in vivo at 25 mg/kg [3, 10]: 89.2%
- IC50 [4]: 30 nM

Compound: CN(C)CCn1c(=O)c2cccc3c4c5c(ccc4n(c1=O)c23)C(=O)CC5 [Example 7, 11,12-Dihydro-5-[2-(dimethylamino)ethyl]-4H,10H-ccylopenta[c]pyrimido[5,6,1-jk]carbazole-4,6,10(5H)-trione hydrochloride]
- responders at 15 mg/kg [2, 7]: 100%
- inhibition in vivo at 15 mg/kg [2, 8]: 73.2%
- IC50 [4]: 31 nM

Compound: CN(C)CCn1c(=O)c2cccc3c4c5c(ccc4n(c1=O)c23)C(=O)CO5 [Example 8, 8-[2-(Dimethylamino)ethyl]-7H-furo[3,2-c]pyrimido[5,6,1-jk]carbazole-3,7,9(2H,8H)-trione hydrochloride]
- responders at 25 mg/kg [2, 7]: 100%
- inhibition in vivo at 25 mg/kg [2, 8]: 94%
- survival rate on day 21 at 30 mg/kg ([3]; 30 mg/kg/day, d1,8,15 after transplantation, read-out: Survival rate on the judgement day (21th day)): 100%
- inhibition in vivo at 30 mg/kg ([3]; 30 mg/kg/day, d1,8,15 after transplantation, tumor weight day 21, read-out: Proliferation inhibitory ratio (%)): 99.9%
- IC50 [4]: 340 nM

Compound: CNCCn1c(=O)c2cccc3c4c5c(ccc4n(c1=O)c23)C(=O)CCC5 [Example 10, 12,13-Dihydro-5-[2-(methylamino)ethyl]-4H-benzo[c]pyrimido[5,6,1-jk]carbazole-4,6,10(5H,11H)-trione hydrochloride]
- responders at 10 mg/kg ([2]; 10 mg/kg/day, q7d × 3, read-out: Survival rate on the judgement day (22th day)): 100%
- inhibition in vivo at 10 mg/kg ([2]; 10 mg/kg/day, q7d × 3, tumor weight day 22, read-out: Proliferation inhibitory ratio (%)): 59.7%
- IC50 [4]: 8.5 nM

Compound: O=C1CCCc2c1ccc1c2c2cccc3c(=O)n(CCN4CCCC4)c(=O)n1c32 [Example 11, 12,13-Dihydro-5-[2-(1-pyrrolidinyl)ethyl]-4H-benzo [c]pyrimido[5,6,1-jk]carbazole-4,6,10(5H,11H)-trione hydrochloride]
- responders at 30 mg/kg ([2]; 30 mg/kg/day, q7d × 3, read-out: Survival rate on the judgement day (22th day)): 100%
- inhibition in vivo at 30 mg/kg ([2]; 30 mg/kg/day, q7d × 3, tumor weight day 22, read-out: Proliferation inhibitory ratio (%)): 82.5%
- IC50 [4]: 42 nM

Compound: CN(C)CCN1C(=O)c2cccc3cc(N)cc(c23)C1=O [amonafide, 5-amino-2-[2-(dimethylamino)ethyl]-1H-benz[de]isoquinoline-1,3(2H)-dione]
- efficacy in clinical tests [5]: poor efficacy in clinical tests
- bone marrow toxicity ([5]; clinical tests): strong bone marrow toxicity

Compound: CN(C)CCN1C(=O)c2cccc3cc4ccccc4c(c23)C1=O [azonafide, 2-[2'-(dimethylamino)ethyl]-1,2-dihydro-3H-dibenz(deh)-isoquinoline-1,3-dione]
- antitumor activity in preclinical tests ([1]; compared with amonafide, WO9200281): enhance the antitumor activity in preclinical tests

Source: patent publication US5952335A, “Fused polycyclic heterocycle derivatives” (Eisai Co., Ltd., priority 1995, dated 1999)
